Key:
[1] = target: Tyrosine-protein kinase JAK3 (Homo sapiens) (UniProt P52333); assay: Inhibition of human JAK3 at 10 uM after 60 mins by TR-FRET assay; conditions: values are per cent of control
[2] = target: Hepatocyte growth factor receptor (Homo sapiens) (UniProt P08581); assay: Inhibition of human Met at 10 uM after 60 mins by TR-FRET assay; conditions: values are per cent of control
[3] = target: Serine/threonine-protein kinase mTOR (Homo sapiens) (UniProt P42345); assay: Inhibition of human mTOR at 10 uM after 60 mins by TR-FRET assay; conditions: values are per cent of control
[4] = target: mTOR/FKBP12A/FKBP12B (Homo sapiens) (UniProt P62942+P68106+P42345); assay: Inhibition of human mTOR/FKBP12 at 10 uM after 60 mins by TR-FRET assay; format: protein-complex assay; conditions: values are per cent of control
[5] = target: Mitogen-activated protein kinase 13 (Homo sapiens) (UniProt O15264); assay: Inhibition of human SAPK4 at 10 uM after 60 mins by TR-FRET assay; conditions: values are per cent of control
[6] = target: High affinity nerve growth factor receptor (Homo sapiens) (UniProt P04629); assay: Inhibition of human TrkA at 10 uM after 60 mins by TR-FRET assay; conditions: values are per cent of control
[7] = target: Serine/threonine-protein kinase ULK3 (Homo sapiens) (UniProt Q6PHR2); assay: Inhibition of human ULK3 at 10 uM after 60 mins by TR-FRET assay; conditions: values are per cent of control
Serine/threonine-protein kinase ULK3 (Homo sapiens), sequence (Q6PHR2 whole entry): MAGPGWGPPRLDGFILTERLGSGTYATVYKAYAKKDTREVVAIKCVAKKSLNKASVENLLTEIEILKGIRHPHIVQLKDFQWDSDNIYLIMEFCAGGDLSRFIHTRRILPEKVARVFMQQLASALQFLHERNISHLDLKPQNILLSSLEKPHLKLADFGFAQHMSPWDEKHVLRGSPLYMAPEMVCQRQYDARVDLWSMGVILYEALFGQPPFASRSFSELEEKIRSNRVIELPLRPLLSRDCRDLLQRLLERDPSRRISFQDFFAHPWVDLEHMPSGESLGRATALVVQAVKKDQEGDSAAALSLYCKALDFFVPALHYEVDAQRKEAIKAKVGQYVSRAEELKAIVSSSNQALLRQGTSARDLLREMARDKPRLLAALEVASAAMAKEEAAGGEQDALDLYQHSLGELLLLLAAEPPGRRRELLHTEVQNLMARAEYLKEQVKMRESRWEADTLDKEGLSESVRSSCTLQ

[8] = target: Tyrosine-protein kinase Fer (Homo sapiens) (UniProt P16591); assay: Inhibition of human Fer at 10 uM after 60 mins by TR-FRET assay; values are per cent of control
[9] = target: Macrophage colony-stimulating factor 1 receptor (Homo sapiens) (UniProt P07333); assay: Inhibition of human Fms at 10 uM after 60 mins by TR-FRET assay; values are per cent of control
[10] = target: Insulin receptor-related protein (Homo sapiens) (UniProt P14616); assay: Inhibition of human IRR at 10 uM after 60 mins by TR-FRET assay; values are per cent of control
[11] = target: Tyrosine-protein kinase Yes (Homo sapiens) (UniProt P07947); assay: Inhibition of human Yes at 10 uM after 60 mins by TR-FRET assay; values are per cent of control
[12] = target: Tyrosine-protein kinase ABL1 (Mus musculus) (UniProt P00520); assay: Inhibition of mouse Abl at 10 uM after 60 mins by TR-FRET assay; values are per cent of control
[13] = target: Tyrosine-protein kinase ABL2 (Homo sapiens) (UniProt P42684); assay: Inhibition of human Arg at 10 uM after 60 mins by TR-FRET assay; values are per cent of control
[14] = target: G protein-coupled receptor kinase 6 (Homo sapiens) (UniProt P43250); assay: Inhibition of human GRK6 at 10 uM after 60 mins by TR-FRET assay; values are per cent of control
G protein-coupled receptor kinase 6 (Homo sapiens), sequence (P43250 whole entry, looked up): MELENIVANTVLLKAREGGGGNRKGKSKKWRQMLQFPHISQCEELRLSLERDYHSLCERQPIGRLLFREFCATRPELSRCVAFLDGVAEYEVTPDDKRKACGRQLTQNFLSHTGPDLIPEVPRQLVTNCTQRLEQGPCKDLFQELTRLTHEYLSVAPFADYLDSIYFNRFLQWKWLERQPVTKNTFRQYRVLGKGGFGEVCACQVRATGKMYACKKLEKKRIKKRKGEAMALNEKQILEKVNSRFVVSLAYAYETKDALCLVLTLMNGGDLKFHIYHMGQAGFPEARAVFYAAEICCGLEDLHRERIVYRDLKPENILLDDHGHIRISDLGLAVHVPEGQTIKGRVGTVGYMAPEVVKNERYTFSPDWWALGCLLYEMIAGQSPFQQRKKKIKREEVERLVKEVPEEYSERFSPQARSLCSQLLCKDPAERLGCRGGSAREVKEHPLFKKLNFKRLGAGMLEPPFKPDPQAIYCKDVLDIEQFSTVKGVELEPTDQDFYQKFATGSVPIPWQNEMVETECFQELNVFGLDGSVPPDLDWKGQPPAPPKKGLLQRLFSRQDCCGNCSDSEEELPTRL

[15] = target: Mitogen-activated protein kinase 10 (Homo sapiens, UniProt P53779); assay: Inhibition of human JNK3 at 10 uM after 60 mins by TR-FRET assay; values are per cent of control
Mitogen-activated protein kinase 10, sequence (P53779 whole entry): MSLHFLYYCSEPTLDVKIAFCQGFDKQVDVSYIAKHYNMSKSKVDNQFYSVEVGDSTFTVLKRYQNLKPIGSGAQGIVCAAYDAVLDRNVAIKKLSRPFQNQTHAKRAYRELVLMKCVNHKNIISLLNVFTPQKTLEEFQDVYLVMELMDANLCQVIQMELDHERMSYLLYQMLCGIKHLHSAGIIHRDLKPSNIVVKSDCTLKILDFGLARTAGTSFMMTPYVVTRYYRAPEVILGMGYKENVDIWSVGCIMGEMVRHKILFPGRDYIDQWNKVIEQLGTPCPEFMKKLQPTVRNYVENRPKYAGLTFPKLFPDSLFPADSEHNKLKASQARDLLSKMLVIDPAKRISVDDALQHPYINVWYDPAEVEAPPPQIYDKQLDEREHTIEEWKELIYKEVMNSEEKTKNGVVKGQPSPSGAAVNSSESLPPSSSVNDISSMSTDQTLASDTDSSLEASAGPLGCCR

[16] = target: Serine/threonine-protein kinase Nek7 (Homo sapiens) (UniProt Q8TDX7); assay: Inhibition of human NEK7 at 10 uM after 60 mins by TR-FRET assay; values are per cent of control
[17] = target: Serine/threonine-protein kinase TAO2 (Homo sapiens) (UniProt Q9UL54); assay: Inhibition of human TAO2 at 10 uM after 60 mins by TR-FRET assay; values are per cent of control
[18] = target: Serine/threonine-protein kinase tousled-like 2 (Homo sapiens) (UniProt Q86UE8); assay: Inhibition of human TLK2 at 10 uM after 60 mins by TR-FRET assay; values are per cent of control
[19] = target: 3-phosphoinositide-dependent protein kinase 1 (Homo sapiens) (UniProt O15530); assay: Inhibition of human PDK1 at 10 uM after 60 mins by TR-FRET assay; values are per cent of control
[20] = target: Ephrin type-A receptor 1 (Homo sapiens) (UniProt P21709); assay: Inhibition of human EphA1 at 10 uM after 60 mins by TR-FRET assay; values are per cent of control
Ephrin type-A receptor 1 (Homo sapiens), sequence (P21709 whole entry): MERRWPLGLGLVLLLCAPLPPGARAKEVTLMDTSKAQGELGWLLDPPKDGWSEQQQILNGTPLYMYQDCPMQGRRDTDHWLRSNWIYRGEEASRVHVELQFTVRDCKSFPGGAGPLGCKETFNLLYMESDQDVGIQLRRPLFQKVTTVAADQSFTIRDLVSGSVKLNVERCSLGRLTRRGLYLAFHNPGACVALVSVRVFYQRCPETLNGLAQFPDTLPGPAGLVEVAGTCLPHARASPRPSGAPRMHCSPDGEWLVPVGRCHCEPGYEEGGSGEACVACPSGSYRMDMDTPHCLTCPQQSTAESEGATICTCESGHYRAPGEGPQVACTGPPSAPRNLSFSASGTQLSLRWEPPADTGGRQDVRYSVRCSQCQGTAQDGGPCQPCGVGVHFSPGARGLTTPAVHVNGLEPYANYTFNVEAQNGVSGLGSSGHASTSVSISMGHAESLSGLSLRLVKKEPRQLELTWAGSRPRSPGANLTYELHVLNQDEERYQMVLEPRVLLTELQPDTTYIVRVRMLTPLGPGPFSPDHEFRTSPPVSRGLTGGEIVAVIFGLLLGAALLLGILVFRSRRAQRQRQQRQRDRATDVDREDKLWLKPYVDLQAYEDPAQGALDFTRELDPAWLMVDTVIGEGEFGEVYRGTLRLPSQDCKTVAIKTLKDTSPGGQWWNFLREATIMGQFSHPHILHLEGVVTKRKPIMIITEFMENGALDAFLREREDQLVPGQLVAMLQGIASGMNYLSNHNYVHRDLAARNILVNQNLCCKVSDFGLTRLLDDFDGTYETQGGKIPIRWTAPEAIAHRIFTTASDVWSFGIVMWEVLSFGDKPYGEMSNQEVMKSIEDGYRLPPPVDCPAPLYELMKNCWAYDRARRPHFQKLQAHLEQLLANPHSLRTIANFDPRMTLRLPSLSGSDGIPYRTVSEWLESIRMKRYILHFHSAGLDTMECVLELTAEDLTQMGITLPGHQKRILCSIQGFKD

[21] = target: Serine/threonine-protein kinase 33 (Homo sapiens) (UniProt Q9BYT3); assay: Inhibition of human STK33 at 10 uM after 60 mins by TR-FRET assay; values are per cent of control
[22] = target: Serine/threonine-protein kinase pim-1 (Homo sapiens) (UniProt P11309); assay: Inhibition of human Pim-1 at 10 uM after 60 mins by TR-FRET assay; values are per cent of control
[23] = target: Ribosomal protein S6 kinase beta-1 (Homo sapiens) (UniProt P23443); assay: Inhibition of human p70S6K at 10 uM after 60 mins by TR-FRET assay; values are per cent of control
[24] = target: RAC-beta serine/threonine-protein kinase (Homo sapiens) (UniProt P31751); assay: Inhibition of human PKBbeta at 10 uM after 60 mins by TR-FRET assay; values are per cent of control
RAC-beta serine/threonine-protein kinase (Homo sapiens), sequence (P31751 whole entry): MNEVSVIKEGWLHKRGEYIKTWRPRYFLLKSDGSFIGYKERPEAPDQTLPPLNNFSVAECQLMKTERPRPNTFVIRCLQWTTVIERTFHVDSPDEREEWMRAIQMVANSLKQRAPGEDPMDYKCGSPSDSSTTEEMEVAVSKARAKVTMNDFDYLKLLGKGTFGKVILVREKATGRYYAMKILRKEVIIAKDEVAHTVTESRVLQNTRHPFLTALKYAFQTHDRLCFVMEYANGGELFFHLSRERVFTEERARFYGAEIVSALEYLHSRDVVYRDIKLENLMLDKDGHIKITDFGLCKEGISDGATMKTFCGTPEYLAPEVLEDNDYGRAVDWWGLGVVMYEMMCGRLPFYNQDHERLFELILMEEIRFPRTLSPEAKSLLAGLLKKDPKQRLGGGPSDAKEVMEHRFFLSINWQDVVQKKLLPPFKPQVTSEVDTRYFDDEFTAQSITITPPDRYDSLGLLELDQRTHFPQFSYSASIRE

[25] = target: Protein kinase C delta type (Homo sapiens) (UniProt Q05655); assay: Inhibition of human PKCdelta at 10 uM after 60 mins by TR-FRET assay; values are per cent of control
Protein kinase C delta type (Homo sapiens), sequence (Q05655 whole entry, looked up): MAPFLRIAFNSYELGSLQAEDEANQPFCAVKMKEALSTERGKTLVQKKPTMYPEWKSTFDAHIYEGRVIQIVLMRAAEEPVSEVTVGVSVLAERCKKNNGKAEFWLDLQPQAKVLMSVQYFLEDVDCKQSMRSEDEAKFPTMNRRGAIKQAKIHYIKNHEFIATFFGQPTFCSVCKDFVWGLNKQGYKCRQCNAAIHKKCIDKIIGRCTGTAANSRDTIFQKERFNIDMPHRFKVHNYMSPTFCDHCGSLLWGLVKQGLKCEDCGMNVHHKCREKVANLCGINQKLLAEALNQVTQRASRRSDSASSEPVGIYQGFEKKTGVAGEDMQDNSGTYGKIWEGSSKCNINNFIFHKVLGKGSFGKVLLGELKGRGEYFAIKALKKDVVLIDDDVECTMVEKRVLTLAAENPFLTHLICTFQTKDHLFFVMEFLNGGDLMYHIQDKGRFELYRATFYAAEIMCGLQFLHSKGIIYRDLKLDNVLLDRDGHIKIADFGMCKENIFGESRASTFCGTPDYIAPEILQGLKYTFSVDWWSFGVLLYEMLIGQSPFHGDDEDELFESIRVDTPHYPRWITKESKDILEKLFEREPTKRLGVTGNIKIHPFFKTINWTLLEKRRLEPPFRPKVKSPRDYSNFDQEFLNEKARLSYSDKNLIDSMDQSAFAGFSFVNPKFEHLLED

[26] = target: Glycogen synthase kinase-3 beta (Homo sapiens) (UniProt P49841); assay: Inhibition of human GSK3-beta at 10 uM after 60 mins by TR-FRET assay; values are per cent of control
[27] = target: Casein kinase I isoform gamma-1 (Homo sapiens) (UniProt Q9HCP0); assay: Inhibition of human CK1gamma1 at 10 uM after 60 mins by TR-FRET assay; values are per cent of control
[28] = system: Tyrosine-protein kinase ABL1 (Homo sapiens), P00519 [H396P]; assay: Inhibition of human Abl H396P mutant at 10 uM after 60 mins by TR-FRET assay; values are per cent of control
[29] = system: Angiopoietin-1 receptor (Homo sapiens), Q02763 [Y897S]; assay: Inhibition of human Tie2 Y897S mutant at 10 uM after 60 mins by TR-FRET assay; values are per cent of control

Hepatocyte growth factor receptor (Homo sapiens), sequence (P08581 whole entry): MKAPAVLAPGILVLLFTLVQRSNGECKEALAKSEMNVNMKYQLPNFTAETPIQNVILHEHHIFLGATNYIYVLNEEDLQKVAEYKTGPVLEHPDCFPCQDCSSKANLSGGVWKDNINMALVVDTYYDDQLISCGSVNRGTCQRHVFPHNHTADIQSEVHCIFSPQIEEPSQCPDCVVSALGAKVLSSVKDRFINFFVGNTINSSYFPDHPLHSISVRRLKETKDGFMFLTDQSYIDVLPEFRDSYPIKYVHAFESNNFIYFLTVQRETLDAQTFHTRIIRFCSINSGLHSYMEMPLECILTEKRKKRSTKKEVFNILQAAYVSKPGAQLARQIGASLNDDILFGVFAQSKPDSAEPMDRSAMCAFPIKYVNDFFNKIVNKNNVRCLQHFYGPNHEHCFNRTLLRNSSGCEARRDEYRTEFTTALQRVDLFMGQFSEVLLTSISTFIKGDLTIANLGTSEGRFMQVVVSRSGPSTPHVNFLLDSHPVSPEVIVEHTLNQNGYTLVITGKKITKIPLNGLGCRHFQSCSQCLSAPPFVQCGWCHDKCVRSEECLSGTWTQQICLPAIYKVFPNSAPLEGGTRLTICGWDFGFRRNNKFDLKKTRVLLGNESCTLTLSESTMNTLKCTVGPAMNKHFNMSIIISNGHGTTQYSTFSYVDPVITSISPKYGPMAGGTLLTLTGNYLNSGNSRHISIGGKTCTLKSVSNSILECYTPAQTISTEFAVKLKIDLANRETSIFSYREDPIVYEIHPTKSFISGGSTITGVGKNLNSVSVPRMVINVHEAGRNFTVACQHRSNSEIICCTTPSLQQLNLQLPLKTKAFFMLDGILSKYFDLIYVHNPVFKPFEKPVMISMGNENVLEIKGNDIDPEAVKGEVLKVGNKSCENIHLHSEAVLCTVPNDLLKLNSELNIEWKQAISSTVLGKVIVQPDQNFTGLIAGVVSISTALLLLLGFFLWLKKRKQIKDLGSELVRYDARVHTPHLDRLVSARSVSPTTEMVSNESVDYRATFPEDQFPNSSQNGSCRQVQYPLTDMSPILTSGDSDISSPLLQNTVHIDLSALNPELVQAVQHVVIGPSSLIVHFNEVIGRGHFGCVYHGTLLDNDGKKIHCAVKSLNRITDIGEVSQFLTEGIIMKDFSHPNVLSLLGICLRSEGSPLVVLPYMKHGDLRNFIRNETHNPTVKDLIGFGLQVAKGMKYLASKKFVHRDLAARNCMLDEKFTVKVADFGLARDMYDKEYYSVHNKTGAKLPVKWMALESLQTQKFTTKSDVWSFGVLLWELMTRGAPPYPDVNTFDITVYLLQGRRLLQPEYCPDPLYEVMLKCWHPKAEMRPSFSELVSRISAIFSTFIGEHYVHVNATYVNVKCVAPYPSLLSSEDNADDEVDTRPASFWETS

residual activity [1]: 147%
residual activity [2]: 108%
residual activity [3]: 98%
residual activity [4]: 107%
residual activity [5]: 111%
residual activity [6]: 116%
residual activity [7]: 107%
residual activity [8]: 99%
residual activity [9]: 96%
residual activity [10]: 111%
residual activity [11]: 107%
residual activity [12]: 94%
residual activity [13]: 109%
residual activity [14]: 108%
residual activity [15]: 4%
residual activity [16]: 112%
residual activity [17]: 103%
residual activity [18]: 110%
residual activity [19]: 108%
residual activity [20]: 103%
residual activity [21]: 107%
residual activity [22]: 96%
residual activity [23]: 102%
residual activity [24]: 110%
residual activity [25]: 111%
residual activity [26]: 90%
residual activity [27]: 105%
residual activity [28]: 107%
residual activity [29]: 92%
Structure (SMILES): S=c1[nH]nc(-c2ccncc2)n1-c1ccc2ccccc2c1

Reference: ChEMBL document CHEMBL1641539 (Bioorg Med Chem Lett, 2011)
